Results on 19 molecules are retold here after patent publication US20260200928A1, “THERAPEUTIC COMPOUNDS” (Sanofi, priority 2022, published 2026).

The target of the test is T1, human IL-17A (Homo sapiens, UniProt Q16552).
T1 construct: purchased R&D Systems 7955-IL/CF
T1 sequence (Q16552 24-155): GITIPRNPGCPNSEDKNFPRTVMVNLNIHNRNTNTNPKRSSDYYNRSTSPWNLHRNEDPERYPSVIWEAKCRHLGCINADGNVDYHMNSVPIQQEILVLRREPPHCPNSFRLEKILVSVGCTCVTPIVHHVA
The experiment in a line: IL-17A AlphaLISA competition assay (block of IL-17A binding to its receptor IL-17RA). As to conditions: mean IC50 (n≥2), block of IL-17A binding to IL-17RA. The gist of the method:
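Bead-based AlphaLISA competition in PBS with 0.05% Tween-20 and 0.1% BSA: compound first meets human IL-17A (7.5 nM stock) for 30 min, then IL-17RA/Fc (5 nM stock) for 90 min, all at room temperature, before acceptor/donor bead capture. IC50 fitted 4-parameter, DMSO and 4 μM reference inhibitor as controls; at least duplicate.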
(In general: In Alpha technology, singlet oxygen from a donor bead excites a nearby acceptor bead.)
As to `[2H]C(c1ccnc(NC(=O)[C@@H](NC(=O)c2ccnn2C)[C@H]2CC[C@H](C)CC2)c1)N1C[C@@H](C(F)(F)F)NC1=O` (stereo partly drawn) [Example 232, 1-Methyl-N-((1S)-1-((1r,4S)-4-methylcyclohexyl)-2-oxo-2-((4-(((S)-2-oxo-4-(trifluoromethyl)imidazolidin-1-VI)methyl-d)pyridin-2-yl)amino)ethyl)-1H-pyrazole-5-carboxamide], the IC50 was 53 nM.

As for `CCc1nocc1C(=O)N[C@H](C(=O)Nc1cc([C@@H](COC)N2C[C@@H](C(F)(F)F)NC2=O)ccn1)C1CCC(Cl)CC1` (stereo partly drawn) [Example 317, N-((1S)-1-(4-chlorocyclohexyl)-2-((4-((S)-2-methoxy-1-((S)-2-oxo-4-(trifluoromethyl)imidazolidin-1-yl)ethyl)pyridin-2-yl)amino)-2-oxoethyl)-3-ethylisoxazole-4-carboxamide], the IC50 came out at 19 nM.

`COC[C@H](c1ccnc(NC(=O)[C@@H](NC(=O)Cc2ccc(OC)nc2)C2CCC(F)(F)CC2)c1)N1C[C@@H](C(F)(F)F)NC1=O` [Example 204, (S)-2-(4,4-difluorocyclohexyl)-N-(4-((S)-2-methoxy-1-((S)-2-oxo-4-(trifluoromethyl)imidazolidin-1-yl)ethyl)pyridin-2-yl)-2-(2-(6-methoxypyridin-3-yl)acetamido)acetamide] showed a 50% inhibitory concentration (IC50) of 129 nM.

Molecule `CC(C)(C)OC(=O)N[C@H](C(=O)Nc1cc(C(NC(=O)CCC(F)(F)F)C2CC2)ccn1)[C@H]1CC[C@H](C)CC1` (single isomer, unassigned; diastereomer 1) [Example 71] had a half-maximal inhibitory concentration (IC50) of 197 nM. This IC50 is about 1.5-fold higher than that of the molecule before.

The molecule `CCn1nccc1C(=O)N[C@H](C(=O)Nc1cc(C[C@H]2C[C@@H](C(F)(F)F)NC2=O)ccn1)C1CCC(F)(F)CC1` [Example 223, N-((S)-1-(4,4-difluorocyclohexyl)-2-oxo-2-((4-(((3S,5S)-2-oxo-5-(trifluoromethyl)pyrrolidin-3-yl)methyl)pyridin-2-yl)amino)ethyl)-1-ethyl-1H-pyrazole-5-carboxamide] gave an IC50 of 84 nM.

Take `COCC(c1ccnc(NC(=O)[C@@H](NC(=O)c2conc2C2CC2)[C@H]2CC[C@H](C)CC2)c1)N1C[C@@H](C(F)(F)F)NC1=O` (single isomer, unassigned) [Example 126]: the IC50 came out at 21 nM.

`CC(C)(C)OC(=O)N[C@H](C(=O)Nc1cc(CN2C(=O)CNC2=O)ccn1)C1CCC(F)(F)CC1` [Example 28, Tert-butyl (S)-(1-(4,4-difluorocyclohexyl)-2-((4-((2,5-dioxoimidazolidin-1-yl)methyl)pyridin-2-yl)amino)-2-oxoethyl)carbamate] yielded an IC50 of 8400 nM.

For the molecule `O=C(N[C@H](C(=O)Nc1cc(CN2C[C@@H](C(F)(F)F)NC2=O)ccn1)C1CCC(F)(F)CC1)c1conc1C1CC1` [Example 20, 3-cyclopropyl-N-((S)-1-(4,4-difluorocyclohexyl)-2-oxo-2-((4-(((S)-2-oxo-4-(trifluoromethyl)-imidazolidin-1-yl)methyl)-pyridin-2-yl)amino)ethyl)-isoxazole-4-carboxamide], the IC50 was 183 nM.

For the molecule `CCc1nocc1C(=O)N[C@H](C(=O)Nc1cc([C@@H](COC)N2CC(F)(F)CNC2=O)ccn1)C1CCC(F)(F)CC1` [Example 178, N-((S)-2-((4-((S)-1-(5,5-difluoro-2-oxotetrahydropyrimidin-1(2H)-yl)-2-methoxyethyl)pyridin-2-yl)amino)-1-(4,4-difluorocyclohexyl)-2-oxoethyl)-3-ethylisoxazole-4-carboxamide], the IC50 was found to be 53 nM.

`CCc1conc1C(=O)N[C@H](C(=O)Nc1cc([C@@H](COC)N2C[C@@H](C(F)(F)F)NC2=O)ccn1)C1CCC(Cl)CC1` (stereo partly drawn) [Example 314, N-((1S)-1-(4-chlorocyclohexyl)-2-((4-((S)-2-methoxy-1-((S)-2-oxo-4-(trifluoromethyl)imidazolidin-1-yl)ethyl)pyridin-2-yl)amino)-2-oxoethyl)-4-ethylisoxazole-3-carboxamide] had a concentration for half-maximal inhibition (IC50) of 58 nM.

With `C[C@H]1CC[C@H]([C@@H](NC(=O)OCc2ccccc2)C(=O)Nc2cc(CN3C[C@H](C(F)(F)F)NC3=O)ccn2)CC1` [Example 5, Benzyl ((S)-1-((1r,4S)-4-methylcyclohexyl)-2-oxo-2-((4-(((S)-2-oxo-4-(trifluoromethyl)imidazolidin-1-yl)methyl)pyridin-2-yl)amino)ethyl)carbamate], the IC50 amounted to 179 nM.

The molecule `CC(C)c1oncc1C(=O)N[C@H](C(=O)Nc1cc(C[C@H]2C[C@@H](C(F)(F)F)NC2=O)ccn1)C1CCC(F)(F)CC1` [Example 219, N-((S)-1-(4,4-difluorocyclohexyl)-2-oxo-2-((4-(((3S,5S)-2-oxo-5-(trifluoromethyl)pyrrolidin-3-yl)methyl)pyridin-2-yl)amino)ethyl)-5-isopropylisoxazole-4-carboxamide] registered a half-maximal inhibitory concentration (IC50) of 80 nM.

In turn, `COC[C@H](c1ccnc(NC(=O)[C@H](COC(C)(C)C(F)(F)F)NC(=O)c2ccnn2C)c1)N1C[C@@H](C(F)(F)F)NC1=O` [Example 271, N-((S)-1-((4-((S)-2-methoxy-1-((S)-2-oxo-4-(trifluoromethyl)imidazolidin-1-yl)ethyl)pyridin-2-yl)amino)-1-oxo-3-((1,1,1-trifluoro-2-methylpropan-2-yl)oxy)propan-2-yl)-1-methyl-1H-pyrazole-5-carboxamide] returned an IC50 of 36 nM. Compared with the last molecule, the IC50 is about 2.2-fold lower.

Regarding `CCc1nonc1C(=O)NC(C(=O)Nc1cc(C(CC)NC(=O)CCC(F)(F)F)ccn1)C1CCC(F)(F)CC1` (stereo in doubt) [Example 207, N-((1S)-1-(4,4-difluorocyclohexyl)-2-oxo-2-((4-(1-(4,4,4-trifluorobutan-amido)propyl)pyridin-2-yl)amino)ethyl)-4-ethyl-1,2,5-oxadiazole-3-carboxamide], the IC50 is 350 nM. Compared with the last molecule, the IC50 is about 9.7-fold higher.

In turn, `C[C@H]1CC[C@H]([C@@H](NC(=O)c2nonc2C2CC2)C(=O)Nc2cc(C(NC(=O)CCC(F)(F)F)C3CC3)ccn2)CC1` (stereo partly drawn) [Example 235, 4-Cyclopropyl-N-((1S)-2-((4-(cyclopropyl(4,4,4-trifluorobutanamido)-methyl)pyridin-2-yl)amino)-1-((1r,4S)-4-methylcyclohexyl)-2-oxoethyl)-1,2,5-oxadiazole-3-carboxamide] returned an IC50 of 66 nM.

Regarding `COCC(c1ccnc(NC(=O)C(NC(=O)C(F)(F)c2ccnn2C)C2CCC(C)CC2)c1)N1CC(C(F)(F)F)NC1=O` (single isomer, unassigned) [Example 248], the IC50 stood at 54 nM.

In turn, `CCc1cnoc1C(=O)N[C@H](C(=O)Nc1cc(C(CC(F)(F)F)NC(=O)CCC(F)(F)F)ccn1)C1CCC(F)(F)CC1` (stereo partly drawn) [Example 157, N-((1S)-1-(4,4-difluorocyclohexyl)-2-oxo-2-((4-(3,3,3-trifluoro-1-(4,4,4-trifluorobutanamido)propyl)pyridin-2-yl)amino)ethyl)-4-ethylisoxazole-5-carboxamide] displayed an IC50 of 117 nM.

`COC[C@H](c1ccnc(NC(=O)C(NC(=O)c2nonc2C2CC2)C2CCC(F)CC2)c1)N1C[C@@H](C(F)(F)F)NC1=O` (single isomer, unassigned) [Example 279] displayed a half-maximal inhibitory concentration (IC50) of 12000 nM. Compared with the last molecule, the IC50 is about 100-fold higher.

`Cc1cn([C@H](C)c2ccnc(NC(=O)[C@@H](NC(=O)c3nonc3C3CC3)C3CCC(F)(F)CC3)c2)c(=O)[nH]1` [Example 168, 4-Cyclopropyl-N—((S)-1-(4,4-difluorocyclohexyl)-2-((4-((R)-1-(4-methyl-2-oxo-2,3-dihydro-1H-imidazol-1-yl)ethyl)pyridin-2-yl)amino)-2-oxoethyl)-1,2,5-oxadiazole-3-carboxamide] showed a concentration for half-maximal inhibition (IC50) of 5790 nM. This IC50 is about 2.1-fold lower than that of the molecule before.

A word on the IC50: it is the concentration at which inhibition is half-maximal. A high value points to a need for much substance.
